Where “and” joins values, the source holds several entries; their conditions need not be identical. Equal values may be shown once.
How the values were obtained:
[1] = target: human NR1/NR2A (Homo sapiens (Human), UniProt Q05586+Q12879); assay: NR2A antagonist activity, Fluo-4 calcium influx assay in HEK293 cells; format: cell-based
Protocol: (§1) Activation of the NR2A or NR2B subtype of NMDA receptor with glutamate as an agonist and glycine co-agonist on these cells results in calcium influx, which can be monitored with fluorescent indicator Fluo-4.
(§2) For experiments, the cells were seeded onto poly-D-lysine-coated 96-well black plates with clear bottom (Corning) at a density of ˜50,000 cells/well. After overnight culture, the growth medium was removed from the wells and the cells were incubated at 37° C. for 60 min in Hanks buffer containing 4 μM fluo-4-AM (Invitrogen) and 0.1% bovine serum albumin (BSA). After dye-loading, the cells were washed three times with Hanks buffer and incubated for 10 min at room temperature with various concentrations of test compounds prepared in Hanks buffer with 0.1% BSA. The cell plates were placed onto FDSS μCell fluorescence reader (Hamamatsu). After 20 sec reading of background fluorescence, agonist glutamate at final 100 μM and co-agonist glycine at final 50 μM were added to the cells to activate the receptor, and the resulting fluorescence changes were recorded and quantified.

[2] = target: human NR1/NR2B (Homo sapiens (Human), UniProt Q13224); assay: NR2B antagonist activity, Fluo-4 calcium influx assay in HEK293 cells; format: cell-based; conditions: HEK293 cells stably expressing NR2B; glutamate 100 μM, glycine 50 μM
Protocol: as §1, §2

[3] = target: hERG channel (Homo sapiens (Human), UniProt Q12809); assay: hERG channel inhibition, whole cell patch clamp in HEK293 cells; format: cell-based; conditions: hERG stably expressed in HEK293 cells
Protocol: The assay was performed on hERG channel stably expressed in HEK293 cells. The cells were cultured at 37° C. in a humidified CO2 incubator in the growth medium consisting of DMEM, 10% fetal bovine serum and antibiotics. Prior to the assay, the cells were seeded onto a 12 mm PDL-coated glass coverslip and cultured in a 35 mm Petri dish. After 16 to 40 hr culture, the cover slip was transferred into the chamber of OctaFlow perfusion system (ALA Instrument) and under a constant flow of extracellular solution (140 mM NaCl, 4 M KCl, 1 mM MgCl2, 1 mM CaCl2, 10 mM HEPES, 10 mM D-glucose, pH 7.35, osmolarity 290). Whole cell patch clamping was performed with a glass micropipette filled with intracellular solution (120 mM KCl, 1.75 mM MgCl2, 10 mM HEPES, 10 mM EGTA, and 4 mM ATP-K2, PH 7.2, osmolarity 300). Giga-seal was maintained during the test. The voltage control and current measurement were carried out using Axon amplifier 700B, Digidata 1440A and CLAMPEX10 software (Molecular Devices). Whole-cell hERG currents were recorded following the Petroski protocol: the cell was held at −80 mV, and the voltage step jumped from −80 to 30 mV and stay for 2 sec with a 20 ms prepulse at −40 mV. After depolarization, the voltage was decreased to −40 mV and stay for 2 sec, and returned back to −80 mV. Test compound was applied by quartz capillary tubes tip (200 μm inner diameter), and the flow rate was controlled at 2-3 ml/min with OctaFlow perfusion system. Different concentrations of the compound were applied to the cells for 5 min and the hERG current was measured three times before, during and after compound treatment. The data were analyzed using Clampfit 10 software (Molecular Devices).

[4] = target: CYP2D6 (Homo sapiens (Human), UniProt P10635); assay: CYP P450 enzyme inhibition in pooled human liver microsome
Protocol: Those CYP isoforms and their corresponding probe substrates are as follows: CYP1A2 (phenacetin, 30 μM), CYP2C9 (tolutamide, 100 μM), CYP2C19 (S-mephenytoin, 40 μM), CYP2D6 (dextromethorphan, 5 μM) and CYP3A4 (midazolam, 1 μM). All probe substrates were used at concentrations near or below their Kms. For experiment, a reaction mixture of test compound at 10 uM or in serial dilution, CYP probe substrate described above and 0.2 mg/mL pooled HLM in phosphate buffer, pH 7.4 in a final volume of 200 μL was pre-incubated at 37° C. for 10 minutes in triplicate. The reaction was initiated by addition of NADPH at final concentration of 1 mM. […] The samples were then centrifuged at 13,000 rpm and the supernatants were injected to LC-MS/MS (Agilent Technologies) to quantify the concentration of the specific metabolites of the probe substrates formed by individual CYP450 isoforms. The inhibition ratio is calculated as: (Mt−M0)/Mwater×100% • in which Mt and M0 represent the concentrations of the specific probe substrate metabolite, which was formed by individual CYP450 isoform, at the beginning and end of the reaction in the presence of test compound; while Mwater represents the concentration of the specific metabolite at the end of the reaction in the absence of test compound. […]

[5] = system: Male mice (strain NLMN); assay: Forced swim test; format: in vivo
Protocol: Mice that are forced to swim in a situation from which they cannot escape, rapidly become immobile. Drugs with antidepressant activity, such as imipramine, reduce the amount of time spent in the immobile state. […] All animals were housed in a temperature (22-24° C.) and humidity (50-60%) controlled environment with free access to food and water on a 12-hour light-dark cycle. Test compounds were dissolved in 0.5% dimethylsulfoxide, 4% hydroxypropyl-b-cyclodextrin water to generate the appropriate dosing solution. Drugs were administered by intraperitoneal injection at a dose volume of 10 mL/kg. Testing was initiated 20-60 minutes after dosing. […] Mice were placed in a white plastic cylinder 20 cm high with a diameter of 21 cm containing 10 cm of water at 25±2° C. The mice were videotaped for 6 minutes, and the last 4 minutes of video were analyzed by a blinded observer off-line. The observer judged the animal to be immobile when it ceased all activity (struggling, swimming, jumping etc.) and floated passively atop the water. The amount of time each animal spent in the immobile state was recorded and used for statistical analysis of compound effect. Group differences were evaluated by student's t-test or one-way ANOVA followed by post-hoc Dunnett's test.

Chain of human NR1/NR2A (Q12879 23-1464, other chains not shown): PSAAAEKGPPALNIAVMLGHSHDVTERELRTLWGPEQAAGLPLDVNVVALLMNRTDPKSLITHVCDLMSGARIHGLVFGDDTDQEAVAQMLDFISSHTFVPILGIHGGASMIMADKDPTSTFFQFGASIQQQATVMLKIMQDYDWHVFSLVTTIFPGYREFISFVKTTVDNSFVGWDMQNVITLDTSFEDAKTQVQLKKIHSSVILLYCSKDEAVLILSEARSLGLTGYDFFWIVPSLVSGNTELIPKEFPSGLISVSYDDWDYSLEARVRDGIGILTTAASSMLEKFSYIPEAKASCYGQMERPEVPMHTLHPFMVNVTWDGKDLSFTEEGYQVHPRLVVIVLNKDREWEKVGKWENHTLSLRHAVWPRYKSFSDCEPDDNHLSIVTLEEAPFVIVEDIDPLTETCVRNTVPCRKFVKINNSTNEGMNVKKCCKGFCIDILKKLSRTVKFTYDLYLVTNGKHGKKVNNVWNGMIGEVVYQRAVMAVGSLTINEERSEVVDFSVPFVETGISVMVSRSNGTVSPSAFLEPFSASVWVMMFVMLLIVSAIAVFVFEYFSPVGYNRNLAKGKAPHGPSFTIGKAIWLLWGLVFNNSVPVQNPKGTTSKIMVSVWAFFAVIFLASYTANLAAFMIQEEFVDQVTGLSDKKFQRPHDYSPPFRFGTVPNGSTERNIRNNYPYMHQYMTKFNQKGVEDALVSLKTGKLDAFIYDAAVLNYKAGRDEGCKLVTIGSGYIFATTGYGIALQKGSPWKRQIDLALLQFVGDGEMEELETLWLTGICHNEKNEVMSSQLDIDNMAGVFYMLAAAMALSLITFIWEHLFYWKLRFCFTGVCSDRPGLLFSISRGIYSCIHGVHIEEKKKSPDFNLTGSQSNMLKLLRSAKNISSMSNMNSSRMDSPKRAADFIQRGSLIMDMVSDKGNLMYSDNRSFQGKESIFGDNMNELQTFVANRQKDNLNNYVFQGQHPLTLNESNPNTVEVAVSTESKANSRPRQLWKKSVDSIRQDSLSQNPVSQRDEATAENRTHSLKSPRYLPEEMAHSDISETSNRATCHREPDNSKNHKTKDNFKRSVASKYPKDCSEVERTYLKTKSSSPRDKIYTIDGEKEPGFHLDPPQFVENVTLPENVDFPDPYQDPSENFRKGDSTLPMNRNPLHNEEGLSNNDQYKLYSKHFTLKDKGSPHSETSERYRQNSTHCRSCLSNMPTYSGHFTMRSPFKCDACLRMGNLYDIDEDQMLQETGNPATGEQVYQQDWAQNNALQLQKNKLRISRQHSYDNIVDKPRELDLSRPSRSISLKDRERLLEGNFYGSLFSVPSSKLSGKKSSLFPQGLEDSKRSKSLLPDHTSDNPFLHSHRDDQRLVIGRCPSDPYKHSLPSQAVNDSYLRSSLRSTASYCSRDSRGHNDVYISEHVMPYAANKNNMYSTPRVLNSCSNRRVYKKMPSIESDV
Chain of human NR1/NR2B (Q13224 27-1484, other chains not shown): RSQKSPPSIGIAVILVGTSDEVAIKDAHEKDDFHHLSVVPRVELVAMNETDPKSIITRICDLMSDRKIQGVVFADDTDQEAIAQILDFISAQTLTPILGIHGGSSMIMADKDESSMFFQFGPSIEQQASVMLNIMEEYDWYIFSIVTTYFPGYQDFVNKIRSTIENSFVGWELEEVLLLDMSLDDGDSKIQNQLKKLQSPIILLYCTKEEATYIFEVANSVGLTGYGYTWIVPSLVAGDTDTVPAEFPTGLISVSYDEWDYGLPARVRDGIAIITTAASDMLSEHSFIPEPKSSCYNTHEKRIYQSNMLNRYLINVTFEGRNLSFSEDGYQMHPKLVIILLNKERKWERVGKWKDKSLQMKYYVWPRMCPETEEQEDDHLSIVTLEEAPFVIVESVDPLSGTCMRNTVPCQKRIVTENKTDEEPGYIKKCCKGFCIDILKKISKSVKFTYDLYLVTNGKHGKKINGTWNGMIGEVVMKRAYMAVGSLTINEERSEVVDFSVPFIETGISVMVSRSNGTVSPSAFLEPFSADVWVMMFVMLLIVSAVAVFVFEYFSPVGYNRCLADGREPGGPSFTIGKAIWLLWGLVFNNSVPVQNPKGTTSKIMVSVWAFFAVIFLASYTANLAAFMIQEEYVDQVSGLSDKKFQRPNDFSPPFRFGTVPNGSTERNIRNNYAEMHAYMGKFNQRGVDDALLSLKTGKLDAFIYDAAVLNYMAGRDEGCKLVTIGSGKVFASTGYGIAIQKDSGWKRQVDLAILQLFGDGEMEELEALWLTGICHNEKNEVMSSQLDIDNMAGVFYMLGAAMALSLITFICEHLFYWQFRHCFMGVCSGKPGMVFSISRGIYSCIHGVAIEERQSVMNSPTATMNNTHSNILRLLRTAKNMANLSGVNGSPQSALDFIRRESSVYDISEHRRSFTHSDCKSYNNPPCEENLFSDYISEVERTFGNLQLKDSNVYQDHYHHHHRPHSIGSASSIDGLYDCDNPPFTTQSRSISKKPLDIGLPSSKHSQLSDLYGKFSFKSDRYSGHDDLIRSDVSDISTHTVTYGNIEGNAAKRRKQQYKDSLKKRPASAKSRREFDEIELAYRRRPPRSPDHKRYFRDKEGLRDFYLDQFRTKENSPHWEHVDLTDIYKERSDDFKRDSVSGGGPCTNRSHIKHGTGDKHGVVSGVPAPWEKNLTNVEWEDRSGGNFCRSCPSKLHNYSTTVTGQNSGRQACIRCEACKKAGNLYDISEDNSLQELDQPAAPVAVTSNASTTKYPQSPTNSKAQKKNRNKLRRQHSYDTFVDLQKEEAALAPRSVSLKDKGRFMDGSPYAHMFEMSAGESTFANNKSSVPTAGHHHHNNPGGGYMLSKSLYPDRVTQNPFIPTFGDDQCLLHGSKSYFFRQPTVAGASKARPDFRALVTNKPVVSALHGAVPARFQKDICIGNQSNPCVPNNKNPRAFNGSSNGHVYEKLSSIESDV
Chain of hERG channel (Q12809 whole entry): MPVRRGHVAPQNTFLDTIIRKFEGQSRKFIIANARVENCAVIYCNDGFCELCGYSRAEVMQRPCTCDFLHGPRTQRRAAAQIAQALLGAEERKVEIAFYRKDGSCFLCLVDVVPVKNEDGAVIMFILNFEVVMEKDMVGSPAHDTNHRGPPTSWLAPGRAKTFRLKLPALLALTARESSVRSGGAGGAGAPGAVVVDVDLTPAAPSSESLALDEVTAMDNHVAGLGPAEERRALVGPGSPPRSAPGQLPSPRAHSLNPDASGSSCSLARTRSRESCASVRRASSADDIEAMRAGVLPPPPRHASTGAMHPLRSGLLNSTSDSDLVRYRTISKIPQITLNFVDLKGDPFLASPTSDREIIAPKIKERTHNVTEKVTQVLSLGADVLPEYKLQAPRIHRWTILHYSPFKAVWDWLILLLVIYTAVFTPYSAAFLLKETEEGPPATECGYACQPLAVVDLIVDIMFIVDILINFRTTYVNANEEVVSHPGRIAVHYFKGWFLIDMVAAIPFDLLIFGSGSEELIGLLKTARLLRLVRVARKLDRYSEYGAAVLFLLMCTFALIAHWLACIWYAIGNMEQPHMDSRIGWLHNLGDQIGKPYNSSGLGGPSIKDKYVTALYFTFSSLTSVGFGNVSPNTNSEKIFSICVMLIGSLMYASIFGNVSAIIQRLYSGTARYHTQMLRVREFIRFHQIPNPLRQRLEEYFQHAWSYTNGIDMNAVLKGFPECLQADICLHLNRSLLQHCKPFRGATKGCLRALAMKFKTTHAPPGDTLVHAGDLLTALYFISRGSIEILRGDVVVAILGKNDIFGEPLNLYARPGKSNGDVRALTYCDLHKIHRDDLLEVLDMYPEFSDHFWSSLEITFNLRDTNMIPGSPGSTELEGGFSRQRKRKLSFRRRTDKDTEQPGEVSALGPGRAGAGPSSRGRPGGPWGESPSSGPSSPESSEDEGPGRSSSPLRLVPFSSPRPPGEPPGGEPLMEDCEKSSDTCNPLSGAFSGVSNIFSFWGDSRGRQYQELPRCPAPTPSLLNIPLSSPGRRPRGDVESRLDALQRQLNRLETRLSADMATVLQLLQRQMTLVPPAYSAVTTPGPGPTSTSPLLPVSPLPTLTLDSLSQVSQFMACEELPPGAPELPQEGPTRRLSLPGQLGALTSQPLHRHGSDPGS
Chain of CYP2D6 (P10635 whole entry): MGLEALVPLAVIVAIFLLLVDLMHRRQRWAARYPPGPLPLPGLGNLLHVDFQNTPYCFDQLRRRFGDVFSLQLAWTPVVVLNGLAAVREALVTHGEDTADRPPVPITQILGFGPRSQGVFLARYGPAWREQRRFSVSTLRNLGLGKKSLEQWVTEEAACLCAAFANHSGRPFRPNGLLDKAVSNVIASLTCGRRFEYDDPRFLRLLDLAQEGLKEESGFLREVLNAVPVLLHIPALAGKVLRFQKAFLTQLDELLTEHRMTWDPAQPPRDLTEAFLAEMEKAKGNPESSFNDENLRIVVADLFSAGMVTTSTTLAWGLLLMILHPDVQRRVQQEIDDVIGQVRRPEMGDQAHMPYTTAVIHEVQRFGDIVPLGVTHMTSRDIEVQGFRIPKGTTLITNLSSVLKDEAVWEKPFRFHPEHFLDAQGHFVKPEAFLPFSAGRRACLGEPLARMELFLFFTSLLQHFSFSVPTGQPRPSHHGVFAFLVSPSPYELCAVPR

SMILES: Fc1cnc(C(F)(F)CN2CCC(Nc3ncnc4[nH]ncc34)CC2)c(F)c1 [C-15, N-(1-(2-(3,5-difluoropyridin-2-yl)-2,2-difluoroethyl)piperidin-4-yl)-1H-pyrazolo[3,4-d]-pyrimidin-4-amine]
- IC50 [1]: > 10000 nM
- IC50 [2]: 93 nM

SMILES: Fc1cc(Cl)cnc1C(F)(F)CN1CCC(Nc2ncnc3[nH]ncc23)CC1 [C-16, N-(1-(2-(5-chloro-3-fluoropyridin-2-yl)-2,2-difluoroethyl)piperidin-4-yl)-1H-pyrazolo[3,4-d]pyrimidin-4-amine]
- IC50 [1]: > 10000 nM
- IC50 [3]: 13000 nM
- IC50 [4]: 10000 nM
- IC50 [2]: 30 nM

SMILES: Cc1cnc(C(F)(F)CN2CCC(Nc3ncnc4[nH]ncc34)CC2)c(F)c1 [C-17, N-(1-(2,2-difluoro-2-(3-fluoro-5-methylpyridin-2-yl)ethyl)piperidin-4-yl)-1H-pyrazolo[3,4-d]pyrimidin-4-amine]
- IC50 [1]: > 10000 nM
- IC50 [2]: 48 nM

SMILES: Cc1n[nH]c2ncnc(NC3CCN(CC(F)(F)c4ccc(C(F)(F)F)cn4)CC3)c12 [C-33, N-(1-(2,2-difluoro-2-(5-(trifluoromethyl)pyridin-2-yl)ethyl)piperidin-4-yl)-3-methyl-1H-pyrazolo[3,4-d]pyrimidin-4-amine]
- IC50 [1]: > 10000 nM
- IC50 [3]: > 30000 nM
- IC50 [2]: 110 nM and 89 nM

SMILES: CN(C)CCCN1c2ccccc2CCc2ccccc21 [imipramine, reference compound]
- antidepressant activity ([5]; positive control, 32 mg/kg, IP): showed the expected antidepressant activity

SMILES: FC(F)(CN1CCC(Nc2ncnc3[nH]ncc23)CC1)c1ccccn1 [C-1, N-(1-(2,2-difluoro-2-(pyridin-2-yl)ethyl)piperidin-4-yl)-1H-pyrazolo[3,4-d]pyrimidin-4-amine]
- IC50 [1]: > 10000 nM
- IC50 [2]: 178 nM

SMILES: FC(F)(CN1CCC(Nc2ncnc3[nH]ncc23)CC1)c1ncc(Cl)cc1Cl [C-24, N-(1-(2-(3,5-dichloropyridin-2-yl)-2,2-difluoroethyl)piperidin-4-yl)-1H-pyrazolo[3,4-d]pyrimidin-4-amine]
- IC50 [1]: > 10000 nM
- IC50 [2]: 52 nM

SMILES: FC(F)c1ccc(C(F)(F)CN2CCC(Nc3ncnc4[nH]ncc34)CC2)nc1 [C-6]
- IC50 [1]: > 10000 nM
- IC50 [2]: 34 nM

SMILES: Cc1ccc(C(F)(F)CN2CCC(Nc3ncnc4[nH]ncc34)CC2)nc1 [C-4, N-(1-(2,2-difluoro-2-(5-methylpyridin-2-yl)ethyl)piperidin-4-yl)-1H-pyrazolo[3,4-d]pyrimidin-4-amine]
- IC50 [1]: > 10000 nM
- IC50 [2]: 52 nM

SMILES: FC(F)(F)c1ccc(C(F)(F)CN2CCC(Nc3ncnc4[nH]ncc34)CC2)cn1 [C-127, N-(1-(2,2-difluoro-2-(6-(trifluoromethyl)pyridin-3-yl)ethyl)piperidin-4-yl)-1H-pyrazolo[3,4-d]pyrimidin-4-amine]
- IC50 [3]: 23000 nM
- IC50 [2]: 38 nM

SMILES: FC(F)(CN1CCC(Nc2ncnc3[nH]ncc23)CC1)c1ccc(Cl)cn1 [C-3]
- IC50 [1]: > 10000 nM
- IC50 [2]: 26 nM

SMILES: FC(F)Oc1ccc(C(F)(F)CN2CCC(Nc3ncnc4[nH]ncc34)CC2)nc1 [C-12]
- IC50 [1]: > 10000 nM
- IC50 [2]: 23 nM

SMILES: FC(F)(F)c1ccc(C(F)(F)CN2CCC(Nc3ncnc4[nH]ncc34)CC2)nc1 [C-5, N-(1-(2,2-difluoro-2-(5-(trifluoromethyl)pyridin-2-yl)ethyl)piperidin-4-yl)-1H-pyrazolo[3,4-d]pyrimidin-4-amine]
- IC50 [1]: > 10000 nM
- IC50 [3]: 31000 nM
- immobility time ([5]; 3 mg/kg IP, vehicle group 188±6.6, p<0.05): 111 ± 18.3 s
- immobility time ([5]; 10 mg/kg IP, vehicle group 188±6.6, p<0.01): 89 ± 14.4 s

SMILES: FCc1ccc(C(F)(F)CN2CCC(Nc3ncnc4[nH]ncc34)CC2)nc1 [C-7]
- IC50 [1]: > 10000 nM
- IC50 [2]: 43 nM

SMILES: Fc1cc(C(F)(F)F)cnc1C(F)(F)CN1CCC(Nc2ncnc3[nH]ncc23)CC1 [C-18, N-(1-(2,2-difluoro-2-(3-fluoro-5-(trifluoromethyl)pyridin-2-yl)-ethyl)piperidin-4-yl)-1H-pyrazolo[3,4-d]pyrimidin-4-amine]
- IC50 [1]: > 10000 nM
- immobility time ([5]; 10 mg/kg, 20 minutes after IP dosing, vehicle group 175±14, p<0.01): 97 ± 16 s
- IC50 [2]: 59 nM

Reference: patent publication US10030026B2, “Difluoroethylpyridine derivatives as NR2B NMDA receptor antagonists” (Rugen Holdings (Cayman) Limited, priority 2014, dated 2018)
